Experimental data as given in patent US8226943B2, “Antibodies to notch receptors” (OncoMed Pharmaceuticals, Inc., priority 2008, dated 2012).

What was measured:
B51 breast tumors = assay: Limiting dilution assay of cancer stem cell frequency, B51 breast tumors; format: in vivo, NOD-SCID mice; settings: B51, paclitaxel
Source text: Limiting dilution assays (LDAs) can be used to assess the effect of a Notch-binding agent on solid tumor cancer stem cells and on the tumorigenicity of a tumor comprising the cancer stem cells. The assays can be sued to determine the frequency of cancer stem cells in tumors from animals treated with the Notch-binding agent or other agent and to compare that frequency to the frequency of cancer stem cells in tumors from control animals.
An LDA was used to assess the effect on the tumorigenicity of the B51 breast tumors that were treated with the combination of control antibody (1B711) plus paclitaxel (Taxol) or treated with the combination of 59R1 and paclitaxel, as described above in Example 7. In addition, the effect of treatment of B51 breast tumors with the control antibody alone or 59R1 alone was also determined by LDA. The doses of antibodies and paclitaxel and the schedule of dosing for the control antibody group and the 59R1 group were the same as described in Example 7, above for the other two treatment groups. After three doses of antibodies and/or paclitaxel, tumors were harvested, processed and dissociated into single cells. The human tumor cells were isolated from the xenograft tumor cells by incubation with biotinylated mouse antibodies (α-mouse CD45-biotin1:200 dilution and rat α-mouse H2 Kd-biotin1:100 dilution, BioLegend, San Diego, Calif.) on ice for 30 min, followed by addition of streptavidin-labeled magnetic beads and removal of the mouse cells with the aid of a magnet. The human cells in the suspension were harvested and counted.
A serial titration of cells (30, 90, 270, and 810 cells) from each of the four treatment groups was injected in a 1:1 (v/v) mixture of FACS buffer and Matrigel into a new set of NOD-SCID mice (n=10/group). Tumors were allowed to grow for 72 days. The percentage of mice with detectable tumors was determined in all groups. The cancer stem cell frequency was then calculated using L-Calc™ software (StemCell Technologies Inc.; downloadable from www.stemcell.com/search/default.asp).

PE13 breast tumors = assay: Microarray analysis of PE13 breast tumors treated with taxol or 59R1 plus taxol; format: in vivo, mice; settings: PE13, Taxol vs. control
Experimental: In addition to investigating the effects of 59R1 in tumors and the effect on CSC frequency, gene changes were studied following 59R1 treatment in combination with taxol. The experiment was performed in PE13 breast tumors where a decrease in CSC frequency after treatment with 59R1 alone or 59R1 plus taxol treatment had previously been observed (and described herein). Microarray analysis was performed on tumors from the same experiment where limiting dilution analyses of PE13 were carried out for CSC quantification (FIG. 19). Animals bearing PE13 breast tumors were treated three weeks with 59R1 plus taxol, control and taxol prior to harvesting for microarray analysis. Mean differential expression values for taxol vs. control and 59R1 plus taxol vs. taxol treated animals (3 animals per group) were calculated.

CC(=O)O[C@H]1C(=O)[C@@]2(C)[C@H]([C@H](OC(=O)c3ccccc3)[C@]3(O)C[C@H](OC(=O)[C@H](O)[C@@H](NC(=O)c4ccccc4)c4ccccc4)C(C)=C1C3(C)C)[C@]1(OC(C)=O)CO[C@@H]1C[C@@H]2O [Taxol, paclitaxel, reference compound]
increase of frequency of cancer stem cells relative to the control (B51 breast tumors): more than two-fold
Fold BMPR1B (PE13 breast tumors): 10.2
Fold BNIP3 (PE13 breast tumors): −2.1
Fold EGLN3 (PE13 breast tumors): −21.1
Fold HSPB6 (PE13 breast tumors): 13.4
Fold ITGAM (PE13 breast tumors): 2.2
Fold LHX8 (PE13 breast tumors): 4.6
Fold NDRG1 (PE13 breast tumors): −9.0
Fold RARRES1 (PE13 breast tumors): 6.4
Fold RARRES3 (PE13 breast tumors): 2.6
Fold RBP2 (PE13 breast tumors): 4.8
Fold XAF1 (PE13 breast tumors): 10.6
